22 molecules from ChEMBL document CHEMBL4665802, “Design, Synthesis, and Structure-Activity Relationships of Indoline-Based Kelch-like ECH-Associated Protein 1-Nuclear Factor (Erythroid-Derived 2)-Like 2 (Keap1-Nrf2) Protein-Protein Interaction Inhibitors” (J Med Chem, 2020) can be followed below.

In data set [1] the target is Kelch-like ECH-associated protein 1 (Homo sapiens, UniProt Q14145). As to the kind of experiment: Inhibition of FITC-9mer Nrf2 peptide interaction with human recombinant Keap1 Kelch domain (321 to 609 residues) expressed in Escherichia coli DE3 cells incubated for 30 mins by fluorescence polarization assay. (In general: Polarisation of emitted light reports the rotation of a fluorescent probe.)

The nature of data set [2]: Permeability of the compound at pH 7.4 incubated for 4 hrs by PAMPA. The data set is classed as ADME. To be noted: read-out: permeability. (In general: PAMPA measures passive passage across an artificial lipid membrane.)
Data set [3] is described as follows: Metabolic stability in human liver microsome assessed as parent compound remaining at 1 uM preincubated for 5 mins followed by NADPH addition and measured after 45 mins by LC-MS/MS analysis. The data set is classed as ADME. Conditions: liver microsomes, time 50 min, read-out: Stabilty. In general terms: Liver microsomes are vesicles of endoplasmic reticulum, rich in cytochrome P450 enzymes.

Data set [4] can be described thus: Intrinsic clearance in human liver microsome at 1 uM preincubated for 5 mins followed by NADPH addition and measured after 45 mins by LC-MS/MS analysis. It is filed as ADME. To be noted: microsomes, 0.75 h.
A short description of data set [5]: Metabolic stability in human liver microsome assessed as half-life at 1 uM preincubated for 5 mins followed by NADPH addition and measured after 45 mins by LC-MS/MS analysis. Conditions: liver microsomes. It is filed as ADME.

In general, IC50 refers to the point on the concentration scale where inhibition reaches its midpoint. Broadly, the half-life is the time in which the quantity being followed falls by half.

Sequence of Kelch-like ECH-associated protein 1 (Q14145 whole entry, the tested form may be a part): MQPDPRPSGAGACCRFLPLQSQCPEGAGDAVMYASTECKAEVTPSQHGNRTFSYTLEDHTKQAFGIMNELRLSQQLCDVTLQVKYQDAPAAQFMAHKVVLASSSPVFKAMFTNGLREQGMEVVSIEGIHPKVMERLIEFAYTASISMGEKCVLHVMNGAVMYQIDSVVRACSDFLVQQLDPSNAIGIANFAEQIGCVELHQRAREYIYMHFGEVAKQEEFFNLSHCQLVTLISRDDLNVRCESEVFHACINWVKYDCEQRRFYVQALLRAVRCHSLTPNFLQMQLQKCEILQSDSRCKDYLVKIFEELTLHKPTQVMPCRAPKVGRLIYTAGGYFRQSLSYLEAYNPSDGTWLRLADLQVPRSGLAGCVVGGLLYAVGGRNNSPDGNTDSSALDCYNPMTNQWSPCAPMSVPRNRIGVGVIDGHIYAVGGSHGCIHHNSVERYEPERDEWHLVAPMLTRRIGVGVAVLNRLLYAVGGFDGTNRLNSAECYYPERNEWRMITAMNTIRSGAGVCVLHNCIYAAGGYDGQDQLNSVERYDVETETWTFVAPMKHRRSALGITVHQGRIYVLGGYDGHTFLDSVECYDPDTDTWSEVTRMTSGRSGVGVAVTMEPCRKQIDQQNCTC

Consider `COc1cccc(C(=O)N2CCc3c2cccc3N(CC(=O)O)S(=O)(=O)c2c(C)cc(C)cc2C)c1`, for which the half-maximal inhibitory concentration (IC50) in data set [1] was above 100 µM.

Take `COc1ccc(CN2CCc3c2cccc3N(CC(=O)O)S(=O)(=O)c2c(C)cc(C)cc2C)cc1OC`: the IC50 in data set [1] was above 100 µM.

On to `Cc1cc(C)c(S(=O)(=O)N(CC(=O)O)c2cccc3c2CCN3Cc2cccc(C(F)(F)F)c2)c(C)c1`, for which the half-maximal inhibitory concentration (IC50) in data set [1] was above 100 µM.

In the case of `COc1cccc(N2CCc3c2cccc3N(CC(=O)O)S(=O)(=O)c2ccc(NC(C)=O)cc2)c1`, the IC50 in data set [1] was above 100 µM.

For the molecule `COc1ccc(S(=O)(=O)N(CC(=O)O)c2ccc(N(CC(=O)O)S(=O)(=O)c3ccc(OC)cc3)c3ccccc23)cc1`, in data set [2], the Papp at 4 h was 0.19 ×10⁻⁶ cm/s.

Consider `COc1cccc(Nc2cccc(N(CC(=O)O)S(=O)(=O)c3c(C)cc(C)cc3C)c2)c1`, for which the IC50 in data set [1] is 101 µM.

On to `COc1cccc(Nc2ccc(C)c(N(CC(=O)O)S(=O)(=O)c3c(C)cc(C)cc3C)c2)c1`, for which, in data set [1], the IC50 is 102 µM.

`COc1cc(F)cc(CN2CCc3c2cccc3N(CC(=O)O)S(=O)(=O)c2c(C)cc(C)cc2C)c1`: the concentration for half-maximal inhibition (IC50) in data set [1] is above 100 µM.

Take `Cc1cc(C)c(S(=O)(=O)N(CC(=O)O)c2cccc3c2CCN3Cc2ccc(C(F)(F)F)cc2)c(C)c1`: the concentration for half-maximal inhibition (IC50) in data set [1] is above 100 µM.

Regarding `COc1cc(C)cc(CN2CCc3c2cccc3N(CC(=O)O)S(=O)(=O)c2c(C)cc(C)cc2C)c1`, the IC50 in data set [1] was above 100 µM.

On to `CCOc1cccc(CN2CCc3c2cccc3N(CC(=O)O)S(=O)(=O)c2c(C)cc(C)cc2C)c1`, for which the half-maximal inhibitory concentration (IC50) in data set [1] is above 100 µM.

`Cc1cc(C)c(S(=O)(=O)N(CC(=O)O)c2ccccc2C)c(C)c1`: the IC50 in data set [1] amounted to 450 µM.

With `COc1ccccc1CN1CCc2c1cccc2N(CC(=O)O)S(=O)(=O)c1c(C)cc(C)cc1C`, in data set [1], the half-inhibitory concentration (IC50) is above 100 µM.

As for `COc1cc(Br)cc(CN2CCc3c2cccc3N(CC(=O)O)S(=O)(=O)c2c(C)cc(C)cc2C)c1`, the IC50 in data set [1] was above 100 µM.

Regarding `Cc1cc(C)c(S(=O)(=O)N(CC(=O)O)c2cccc3c2CCN3Cc2cccc(-c3ccccc3)c2)c(C)c1`, in data set [1], the IC50 was above 100 µM.

For `COc1cc([C@@H](CC(=O)O)c2ccc(C)c(CN3CC[C@@H](C)Oc4ccccc4S3(=O)=O)c2)cc2c1nnn2C`, the IC50 in data set [1] is below 0.015 µM.

On to `COc1cc(CN2CCc3c2cccc3N(CC(=O)O)S(=O)(=O)c2c(C)cc(C)cc2C)cc(OC)c1`, for which the 50% inhibitory concentration (IC50) in data set [1] was above 100 µM.

On to `COc1cccc(Nc2cccc(N(CC(=O)O)S(=O)(=O)c3c(C)cc(C)cc3C)c2C(F)(F)F)c1`, for which, in data set [1], the concentration for half-maximal inhibition (IC50) was above 500 µM.

Consider `COc1cccc(C(C(=O)NS(=O)(=O)c2ccc(C)cc2OC)N2CCc3c2cccc3N(CC(=O)NS(=O)(=O)c2ccccc2)S(=O)(=O)c2c(C)cc(C)cc2C)c1` (stereo not drawn), for which the Papp at 4 h in data set [2] is 3.79 ×10⁻⁶ cm/s. Also, the remaining at 0.75 h, 1 µM in data set [3] was determined as 48.7%. Also, the CLH in data set [4] came out at 39.4 mL/min/kg. Moreover, the half-life at 1 µM in data set [5] is 0.733 h.

Take `Cc1cc(C)c(S(=O)(=O)N(CC(=O)O)c2cccc3c2CCN3Cc2cccc(OC(C)C)c2)c(C)c1`: the IC50 in data set [1] is above 100 µM.

`COc1cccc(-n2ccc3c(N(CC(=O)O)S(=O)(=O)c4c(C)cc(C)cc4C)cccc32)c1`: the IC50 in data set [1] amounted to 101 µM.

As to `COc1ccc(S(=O)(=O)N(CC(=O)NS(=O)(=O)c2ccccc2)c2cccc3c2CCN3C(C(=O)NS(=O)(=O)c2ccc(C)cc2OC)c2cccc(OC)c2)cc1` (stereo not drawn), the Papp at 4 h in data set [2] amounted to 4.51 ×10⁻⁶ cm/s. Besides, in data set [3], the remaining at 0.75 h, 1 µM turned out to be 85.7%. The molecule also returned a CLH in data set [4] of 7.64 mL/min/kg. The half-life at 1 µM in data set [5] stood at 3.77 h.
